Laboratory results taken from US8952034B2, “Fused heterocyclic compounds as ion channel modulators” (Gilead Sciences, Inc., priority 2009, dated 2015).

Biological target: wild-type human cardiac sodium channel, hNav1.5 (Homo sapiens, UniProt Q14524)
Assay: Late INa screening assay (automated whole cell patch clamp, PatchXpress)
Type: cell-based
Details: HEK293 cells expressing hNav1.5, late INa generated with 10 μM Tefluthrin (or 50 nM ATX II); for inhibition at 1 µM: compound at 1 μM, read-out: LateINa_1 uM (percent block of late INa); for inhibition at 10 µM: compound at 10 μM, read-out: LateINa_10 uM (percent block of late INa)
In short: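 Late sodium current through wild-type human hNav1.5 stably expressed in HEK293 cells (no beta subunits) was recorded by automated whole-cell patch clamp on a PatchXpress 7000A at 24-27° C. Late INa was induced with 10 μM Tefluthrin or 50 nM ATX II. Cells were stepped from −120 mV to −20 mV for 250 ms at 0.1 Hz, and percent block was normalized to current in Na-free extracellular solution.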

wild-type human cardiac sodium channel, hNav1.5, sequence (Q14524 whole entry): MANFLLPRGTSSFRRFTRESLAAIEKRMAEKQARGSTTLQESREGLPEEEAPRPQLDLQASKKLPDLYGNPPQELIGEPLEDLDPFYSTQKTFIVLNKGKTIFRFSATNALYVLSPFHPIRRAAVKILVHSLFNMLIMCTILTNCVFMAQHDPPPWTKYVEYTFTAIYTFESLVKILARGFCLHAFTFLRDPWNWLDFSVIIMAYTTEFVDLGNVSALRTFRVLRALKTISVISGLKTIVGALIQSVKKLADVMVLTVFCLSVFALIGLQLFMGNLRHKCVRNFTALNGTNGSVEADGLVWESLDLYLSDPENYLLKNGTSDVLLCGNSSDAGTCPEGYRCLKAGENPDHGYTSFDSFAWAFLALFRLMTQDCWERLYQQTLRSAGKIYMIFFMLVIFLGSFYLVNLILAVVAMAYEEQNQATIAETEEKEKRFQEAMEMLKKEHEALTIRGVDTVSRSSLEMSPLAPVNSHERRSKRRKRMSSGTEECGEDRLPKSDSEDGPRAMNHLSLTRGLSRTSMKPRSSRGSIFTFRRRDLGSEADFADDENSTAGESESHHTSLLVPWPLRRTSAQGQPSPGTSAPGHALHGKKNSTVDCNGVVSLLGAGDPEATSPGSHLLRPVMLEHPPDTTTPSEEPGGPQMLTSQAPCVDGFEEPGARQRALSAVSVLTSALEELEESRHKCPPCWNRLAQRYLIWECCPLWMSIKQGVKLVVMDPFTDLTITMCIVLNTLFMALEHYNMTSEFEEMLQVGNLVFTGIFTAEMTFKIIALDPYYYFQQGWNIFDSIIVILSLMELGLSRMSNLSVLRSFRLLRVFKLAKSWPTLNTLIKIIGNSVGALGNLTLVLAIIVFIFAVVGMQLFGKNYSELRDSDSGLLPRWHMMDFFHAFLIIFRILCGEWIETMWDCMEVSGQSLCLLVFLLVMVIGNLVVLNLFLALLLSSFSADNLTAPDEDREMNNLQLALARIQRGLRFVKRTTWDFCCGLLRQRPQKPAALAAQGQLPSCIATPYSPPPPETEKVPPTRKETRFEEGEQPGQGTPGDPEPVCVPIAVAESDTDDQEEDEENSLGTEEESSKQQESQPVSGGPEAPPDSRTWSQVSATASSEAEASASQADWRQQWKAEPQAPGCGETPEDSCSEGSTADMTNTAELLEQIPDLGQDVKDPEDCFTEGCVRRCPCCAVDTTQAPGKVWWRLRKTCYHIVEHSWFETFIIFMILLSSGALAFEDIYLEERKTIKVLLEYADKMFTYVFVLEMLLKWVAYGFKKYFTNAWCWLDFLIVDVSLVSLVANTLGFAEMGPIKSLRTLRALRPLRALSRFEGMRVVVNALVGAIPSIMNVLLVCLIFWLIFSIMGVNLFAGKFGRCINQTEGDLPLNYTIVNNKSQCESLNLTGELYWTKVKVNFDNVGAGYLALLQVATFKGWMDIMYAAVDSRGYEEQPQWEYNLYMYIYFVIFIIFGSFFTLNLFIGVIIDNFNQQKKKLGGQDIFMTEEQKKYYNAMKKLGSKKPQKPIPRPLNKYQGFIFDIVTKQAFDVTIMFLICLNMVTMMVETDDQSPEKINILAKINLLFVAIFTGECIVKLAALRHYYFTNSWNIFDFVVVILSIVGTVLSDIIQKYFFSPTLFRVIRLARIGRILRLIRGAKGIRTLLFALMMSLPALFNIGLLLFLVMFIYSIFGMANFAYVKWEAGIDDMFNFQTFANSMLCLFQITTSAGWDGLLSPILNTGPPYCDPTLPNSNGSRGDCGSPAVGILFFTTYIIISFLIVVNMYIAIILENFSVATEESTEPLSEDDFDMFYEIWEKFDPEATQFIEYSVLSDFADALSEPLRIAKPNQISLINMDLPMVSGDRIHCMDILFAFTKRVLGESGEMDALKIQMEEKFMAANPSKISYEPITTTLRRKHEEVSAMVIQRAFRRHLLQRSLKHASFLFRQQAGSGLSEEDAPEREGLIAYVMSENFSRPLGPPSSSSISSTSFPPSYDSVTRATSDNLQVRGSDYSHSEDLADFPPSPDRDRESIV

Row | Structure (SMILES) | inhibition at 1 µM | inhibition at 10 µM
1 | FC(F)(F)Oc1ccc(-c2ccc3nnc(C(F)(F)OCCC(c4ccccc4)c4ccccc4)n3c2)cc1 [BHN-303, 3-[(3,3-diphenylpropoxy)(difluoro)methyl]-6-[4-(trifluoromethoxy)phenyl][1,2,4]triazolo[4,3-a]pyridine] | 51% | –
2 | Cc1oc(-c2ccccc2)nc1COC(F)(F)c1nnc2ccc(-c3ccc(OC(F)(F)F)cc3)cn12 [BHN-229, 3-{difluoro[(5-methyl-2-phenyl-1,3-oxazol-4-yl)methoxy]methyl}-6-[4-(trifluoromethoxy)phenyl][1,2,4]triazolo[4,3-a]pyridine] | 72.2% | –
3 | Cc1nnc2ccc(-c3ccc(Oc4ccccc4)cc3)cn12 [BHN-333, 3-methyl-6-(4-phenoxyphenyl)[1,2,4]triazolo[4,3-a]pyridine] | – | 61.6%
4 | FC(F)(F)c1nnc2ccc(-c3ccc(Nc4ccccc4)cc3)cn12 [BHN-114, N-phenyl-4-[3-(trifluoromethyl)[1,2,4]triazolo[4,3-a]pyridin-6-yl]aniline] | 37.4% | –
5 | Cc1cc(COC(F)(F)c2nnc3ccc(-c4ccc(OC(F)(F)F)cc4)cn23)nn1-c1ccc(Cl)cc1 [BHN-302, 3-[{[1-(4-chlorophenyl)-5-methyl-1H-pyrazol-3-yl]methoxy}(difluoro)methyl]-6-[4-(trifluoromethoxy)phenyl][1,2,4]triazolo[4,3-a]pyridine] | 52.8% | –
6 | FC(F)(F)Oc1ccc(-c2ccc3nnc(C(F)(F)OCc4ccccc4)n3c2)cc1 [BHN-148, 3-[(benzyloxy)(difluoro)methyl]-6-[4-(trifluoromethoxy)phenyl][1,2,4]triazolo[4,3-a]pyridine] | 71.7% | –
7 | FC(F)(F)c1nnc2ccc(-c3ccc(C4CC4)nc3)cn12 [BHN-88, 6-(6-cyclopropylpyridin-3-yl)-3-(trifluoromethyl)[1,2,4]triazolo[4,3-a]pyridine] | – | 36%
8 | CC(C)(C#N)c1ccc(-c2ccc3nnc(C(F)(F)F)n3c2)cc1 [BHN-66, 2-methyl-2-{4-[3-(trifluoromethyl)[1,2,4]triazolo[4,3-a]pyridin-6-yl]phenyl}propanenitrile] | 33.2% | 70.7%
9 | Cc1nc(COC(F)(F)c2nnc3ccc(-c4ccc(OC(F)(F)F)cc4)cn23)c(C)o1 [BHN-228, 3-{[(2,5-dimethyl-1,3-oxazol-4-yl)methoxy](difluoro)methyl}-6-[4-(trifluoromethoxy)phenyl][1,2,4]triazolo[4,3-a]pyridine] | 73% | –
10 | CC(=O)Nc1cc(OC(F)(F)F)ccc1-c1ccc2nnc(-c3ccc(OC(F)(F)F)cc3)n2c1 [BHN-116, N-[5-(trifluoromethoxy)-2-{3-[4-(trifluoromethoxy)phenyl][1,2,4]triazolo[4,3-a]pyridin-6-yl}phenyl]acetamide] | 16.4% | –
11 | NC(=O)c1ccc(-c2nnc3ccc(-c4ccc(OC(F)(F)F)cc4)cn23)cc1 [BHN-79, 4-{6-[4-(trifluoromethoxy)phenyl][1,2,4]triazolo[4,3-a]pyridin-3-yl}benzamide] | – | 19.3%
12 | N#Cc1ccc(-c2nnc3ccc(-c4ccc(OC(F)(F)F)cc4)nn23)cc1 [BHN-42, 4-{6-[4-(trifluoromethoxy)phenyl][1,2,4]triazolo[4,3-b]pyridazin-3-yl}benzonitrile] | – | 43.8%
13 | Cc1c(-c2ccc(OC(F)(F)F)cc2)ccc2nnc(C(F)(F)F)n12 [BHN-202, 5-methyl-6-[4-(trifluoromethoxy)phenyl]-3-(trifluoromethyl)[1,2,4]triazolo[4,3-a]pyridine] | 74.2% | –
14 | CC(C)(O)c1nnc2ccc(-c3ccc(Oc4ccccc4)cc3)nn12 [BHN-60, 2-[6-(4-phenoxyphenyl)[1,2,4]triazolo[4,3-b]pyridazin-3-yl]propan-2-ol] | – | 48.6%
15 | CC(C)c1nc(COC(F)(F)c2nnc3ccc(-c4ccc(OC(F)(F)F)cc4)cn23)no1 [BHN-208, 3-(difluoro{[5-(propan-2-yl)-1,2,4-oxadiazol-3-yl]methoxy}methyl)-6-[4-(trifluoromethoxy)phenyl][1,2,4]triazolo[4,3-a]pyridine] | 70.5% | –
